The values below come from article PMC12607499, “Prokaryotic Expression and Binding Characteristics of Odor-Binding Protein GqinOBP10 in Gynaephora qinghaiensis” (International Journal of Molecular Sciences, 2025).

In general, pIC50 refers to the IC50 on a negative log10 scale, so that one unit is a factor of ten. A high value points to a small IC50. One may read the pKi as the negative decadic logarithm of the Ki, by convention in mol/L.

pIC50, pKi: −log10 of the molar value.

The assay concerns the target T1, GqinOBP10.
T1 construct: gene OBP10; full length 134 residues (405 bp); signal peptide removed; vector pCZN1, E. coli BL21 (DE3); His tag cut off with enterokinase; about 15 kDa
Briefly: fluorescence competitive binding with 1-NPN probe. Details: species or system Gynaephora qinghaiensis. The settings on record: 2 µM protein, 50 mM Tris-HCl pH 7.4; displacement of 1-NPN. From the text:
fluorescence competitive binding with 1-NPN probe on GqinOBP10
With `OCCC(O)CO` (stereo not shown) [1,2,4-butanetriol], the pIC50 was 4.93 and the pKi was 4.94.

Regarding `O=C1CCC(=O)CC1` [1,4-Cyclohexanedione], the pIC50 is 4.88 and the pKi is 4.88.

In turn, `NC1(C(=O)O)CC1` [1-Aminocyclopropane-1-carboxylic acid] showed a pIC50 of 4.73 and a pKi of 4.73.

For `OC1CCc2ccccc21` (stereo not shown) [1-Indanol], the pIC50 is 4.92 and the negative-log Ki (pKi) is 4.92.

For the compound `NCC(O)c1ccccc1` (stereo not shown) [2-Amino-1-phenylethanol], the pIC50 is 5.35 and the pKi was 5.35.

For the compound `CCCCCCCC/C=C\CCCCCCCC(=O)OC(CO)CO` [2-Oleoylglycerol], the pIC50 is 5.22 and the pKi was 5.22.

As for `CC(CN)C(=O)O` (stereo not shown) [3-Aminoisobutanoic acid], the pIC50 is 4.82 and the pKi is 4.83.

`N#CC[C@H](N)C(=O)O` [β-cyano-L-alanine] gave a pIC50 of 4.91 and a pKi of 4.91.
